# Reference: US20250353812A1, “2,6-DIBENZYLIDENECYCLOHEXANONE OXIME COMPOUND AND PREPARATION METHOD THEREFOR AND USE THEREOF” (WENZHOU MEDICAL UNIVERSITY, priority 2022, published 2025)
# What was measured:
# [1] = test system: TNF-α; assay: Inhibition of TNF-α release from J774A.1 macrophages stimulated by LPS (ELISA); type: cell-based; details: 10 μM compound pretreatment 2 h, then 0.5 μg/mL LPS 22 h, LPS control = 100, FIG. 2
# Description: (§1) The present invention tested the dose-effect relationship of some of the compounds of Examples in inhibiting the release of IL-6 and TNF-α from J774A.1 macrophages stimulated by LPS. The specific method is as follows: 1.2×10^6 […] macrophages were cultured by DMEM culture solution at 37° C., the culture solution was renewed after 24 h, the tested example compound (at a final concentration of 10 μM) was added for pretreatment for 2 h and then continuously treated by 0.5 μg/mL of LPS for 22 h, the culture solution was collected, and the content of IL-6 and TNF-α was detected by ELISA method. The total protein concentration was measured by collecting cells, the ELISA results were divided by the corresponding total protein concentration and calibrated by the IL-6 and TNF-α content of LPS control group as 100, and the average and error values were calculated.
# [2] = test system: IL-6; assay: Inhibition of IL-6 release from J774A.1 macrophages stimulated by LPS (ELISA); type: cell-based; details: 10 μM compound pretreatment 2 h, then 0.5 μg/mL LPS 22 h, LPS control = 100, FIG. 1
# Description: as §1
# [3] = test system: liver inflammation in obese mice; assay: Protective effect on liver inflammation in obese mice (high-fat diet); type: in vivo; details: HFD mice; Example 9 12 mg/kg, Example 2 10 mg/kg, intragastric gavage every two days for 8 weeks
# Description: (§2) A suspension of 0.5% sodium carboxymethylcellulose and the compounds of Examples was prepared for intragastric administration. The blank control group and the high-fat diet obesity model group were administrated with equal doses of solvent (0.5% CMC-Na solution) intragastrically. The mice were first adaptively raised for 1 week, and when the mice were 8 weeks old, they were randomly divided into 2 groups (A: Con, B: HFD). Group A was fed with normal mouse feed, and mice in group B were fed with 60% high-fat feed for 16 weeks. After the model was successfully established at 12 weeks, the mice in group B were randomly divided into three groups (i: HFD, ii: HFD+Example 9, 12 mg/kg, iii: HFD+Example 2, 10 mg/kg). The body weight of the mice was measured and recorded every week, and groups ii and iii were treated with the compounds of Examples by intragastric gavage every two days for 8 weeks. After 24 weeks, the mice were anesthetized and sacrificed, and blood samples were collected and centrifuged to collect serum for various serum biochemical tests; the liver was removed, and the liver tissue was cut and embedded (frozen and paraffin) for immunohistochemistry and other analyses. The remaining liver tissues were snap frozen in liquid nitrogen and stored in a −80° C. freezer.
# Taking the compounds of Examples 2 and 9 as examples, the experimental results are shown in FIGS. 3A-3D and FIGS. 4A-4E, where 2 and 9 represent the compounds of Example 2 and Example 9, respectively. Inflammation was assessed by examining macrophage infiltration in the liver using the macrophage-specific marker F4/80 staining. […] In addition, the expression of TNF-α, IL-6 and IL-1β genes in liver tissue was detected.
# [4] = test system: liver lipid metabolism of obese mice; assay: Protective effect on liver lipid metabolism of obese mice (high-fat diet); type: in vivo; details: HFD mice; Example 9 12 mg/kg, Example 2 10 mg/kg, intragastric gavage every two days for 8 weeks
# Description: as §2
# The liver lipid metabolism of obese mice is taken as an example. […] It can be clearly seen from the above test results that the compound having the structure of formula I of the present invention has a protective effect on the liver lipid metabolism of obese mice.
compound,measurement,setting,value
"Fc1ccc(CON=C2/C(=C/c3ccccc3C(F)(F)F)CCC/C2=C\c2ccccc2C(F)(F)F)cc1 [Example 19, 2,6-(E,E)-(2-(trifluoromethyl)benzylidene)cyclohexan-1-one-4-fluorobenzyl oxime]",inhibitory effect on the release of TNF-α,[1],significant inhibitory effect
"FC(F)(F)c1ccccc1/C=C1\CCC/C(=C\c2ccccc2C(F)(F)F)C1=NOCC1CCCO1 (stereo not shown) [Example 26, 2,6-(E,E)-(2-(trifluoromethyl)benzylidene)cyclohexan-1-one-((tetrahydrofuran-2-yl)methyl)oxime]",inhibitory effect on the release of TNF-α,[1],significant inhibitory effect
"CC(C)ON=C1/C(=C/c2ccccc2C(F)(F)F)CCC/C1=C\c1ccccc1C(F)(F)F [Example 10, 2,6-(E,E)-(2-(trifluoromethyl)benzylidene)cyclohexan-1-one isopropyl oxime]",inhibitory effect on the release of IL-6,[2],significant inhibitory effect
"FC(F)(F)c1ccccc1/C=C1\CCC/C(=C\c2ccccc2C(F)(F)F)C1=NOCC1OCCO1 [Example 27, 2,6-(E,E)-(2-(trifluoromethyl)benzylidene)cyclohexan-1-one-((1,3-dioxolan-2-yl)methyl)oxime]",inhibitory effect on the release of IL-6,[2],significant inhibitory effect
same,inhibitory effect on the release of TNF-α,[1],significant inhibitory effect
"Fc1ccc(CCON=C2/C(=C/c3ccccc3C(F)(F)F)CCC/C2=C\c2ccccc2C(F)(F)F)cc1 [Example 25, 2,6-(E,E)-(2-(trifluoromethyl)benzylidene)cyclohexan-1-one-4-(fluorophenethyl)oxime]",inhibitory effect on the release of IL-6,[2],significant inhibitory effect
same,inhibitory effect on the release of TNF-α,[1],significant inhibitory effect
"FC(F)(F)c1ccccc1/C=C1\CCC/C(=C\c2ccccc2C(F)(F)F)C1=NOCc1c(Cl)cccc1Cl [Example 20, 2,6-(E,E)-(2-(trifluoromethyl)benzylidene)cyclohexan-1-one-2,6-dichlorobenzyl oxime]",inhibitory effect on the release of IL-6,[2],significant inhibitory effect
"CN1CCN(CCCON=C2/C(=C/c3ccccc3C(F)(F)F)CCC/C2=C\c2ccccc2C(F)(F)F)CC1 [Example 30, 2,6-(E,E)-(2-(trifluoromethyl)benzylidene)cyclohexan-1-one-(3-(4-methylpiperazin-1-yl)propyl)oxime]",inhibitory effect on the release of IL-6,[2],significant inhibitory effect
"FC(F)(F)c1ccccc1/C=C1\CCC/C(=C\c2ccccc2C(F)(F)F)C1=NOCCN1CCOCC1 [Example 7, 2,6-(E,E)-(2-(trifluoromethyl)benzylidene)cyclohexan-1-one-2-(morpholinoethyl)oxime]",inhibitory effect on the release of IL-6,[2],significant inhibitory effect
same,inhibitory effect on the release of TNF-α,[1],significant inhibitory effect
"Cc1cccc(CCON=C2/C(=C/c3ccccc3C(F)(F)F)CCC/C2=C\c2ccccc2C(F)(F)F)c1 [Example 22, 2,6-(E,E)-(2-(trifluoromethyl)benzylidene)cyclohexan-1-one-3-(methylphenylethyl)oxime]",inhibitory effect on the release of TNF-α,[1],significant inhibitory effect
"Fc1cccc(CCON=C2/C(=C/c3ccccc3C(F)(F)F)CCC/C2=C\c2ccccc2C(F)(F)F)c1 [Example 24, 2,6-(E,E)-(2-(trifluoromethyl)benzylidene)cyclohexan-1-one-3-(fluorophenethyl)oxime]",inhibitory effect on the release of TNF-α,[1],significant inhibitory effect
"COCCON=C1/C(=C/c2ccc(OC)cc2)CCC/C1=C\c1ccc(OC)cc1 [Example 35, 2,6-(E,E)-(4-(methoxy)benzylidene)cyclohexan-1-one-(2-methoxyethyl)oxime]",inhibitory effect on the release of IL-6,[2],significant inhibitory effect
same,inhibitory effect on the release of TNF-α,[1],significant inhibitory effect
"CC(C)ON=C1/C(=C/c2ccccc2F)CCC/C1=C\c1ccccc1F [Example 33, 2,6-(E,E)-(2-(fluoro)benzylidene)cyclohexan-1-one isopropyl oxime]",inhibitory effect on the release of IL-6,[2],significant inhibitory effect
same,inhibitory effect on the release of TNF-α,[1],significant inhibitory effect
"FC(F)(F)c1ccccc1/C=C1\CCC/C(=C\c2ccccc2C(F)(F)F)C1=NOCC1CCOCC1 [Example 28, 2,6-(E,E)-(2-(trifluoromethyl)benzylidene)cyclohexan-1-one-(tetrahydro-2H-pyran-4-yl) methyl oxime]",inhibitory effect on the release of IL-6,[2],significant inhibitory effect
same,inhibitory effect on the release of TNF-α,[1],significant inhibitory effect
"CCCON=C1/C(=C/c2ccccc2C(F)(F)F)CCC/C1=C\c1ccccc1C(F)(F)F [Example 2, 2,6-(E,E)-(2-(trifluoromethyl)benzylidene)cyclohexan-1-one propyl oxime]",inhibitory effect on the release of IL-6,[2],significant inhibitory effect
same,inhibitory effect on the release of TNF-α,[1],significant inhibitory effect
same,macrophage infiltration in the liver (F4/80 staining),[3],decreased
same,upregulation of IL-1β gene in mouse liver tissue (mRNA),[3],significantly alleviated
same,upregulation of IL-6 gene in mouse liver tissue (mRNA),[3],significantly alleviated
same,upregulation of TNF-α gene in mouse liver tissue (mRNA),[3],significantly alleviated
same,"dyslipidemia caused by high-fat diet feeding (serum triglycerides, low-density lipoprotein cholesterol, total cholesterol)",[4],significantly alleviated
same,lipid accumulation in the liver (H&E staining),[4],significantly alleviated
same,"lipid accumulation in the liver (oil red staining of frozen sections, quantified)",[4],significantly alleviates
FC(F)(F)c1ccccc1/C=C1\CCC/C(=C\c2ccccc2C(F)(F)F)C1=NOCCN1CCCC1 [Example 5],inhibitory effect on the release of IL-6,[2],significant inhibitory effect
"Oc1ccc(/C=C2\CCC/C(=C\c3ccc(O)cc3)C2=NOCC2CCCC2)cc1 [Example 37, 2,6-(E,E)-(4-(hydroxy)benzylidene)cyclohexan-1-one cyclopentylmethyl oxime]",inhibitory effect on the release of IL-6,[2],significant inhibitory effect
same,inhibitory effect on the release of TNF-α,[1],significant inhibitory effect
FC(F)(F)c1ccccc1/C=C1\CCC/C(=C\c2ccccc2C(F)(F)F)C1=NOCCC1OCCO1 [Example 29],inhibitory effect on the release of TNF-α,[1],significant inhibitory effect
"COc1cccc(CON=C2/C(=C/c3ccccc3C(F)(F)F)CCC/C2=C\c2ccccc2C(F)(F)F)c1 [Example 16, 2,6-(E,E)-(2-(trifluoromethyl)benzylidene)cyclohexan-1-one-3-methoxybenzyl oxime]",inhibitory effect on the release of IL-6,[2],significant inhibitory effect
"Clc1ccc(/C=C2\CCC/C(=C\c3ccc(Cl)c(Cl)c3)C2=NOCCN2CCOCC2)cc1Cl [Example 39, 2,6-(E,E)-(3,4-(dichloro)benzylidene)cyclohexan-1-one-2-(morpholinoethyl)oxime]",inhibitory effect on the release of IL-6,[2],significant inhibitory effect
same,inhibitory effect on the release of TNF-α,[1],significant inhibitory effect
"Fc1cccc(CON=C2/C(=C/c3ccccc3C(F)(F)F)CCC/C2=C\c2ccccc2C(F)(F)F)c1 [Example 18, 2,6-(E,E)-(2-(trifluoromethyl)benzylidene)cyclohexan-1-one-3-fluorobenzyl oxime]",inhibitory effect on the release of IL-6,[2],significant inhibitory effect
"FC(F)(F)c1ccccc1/C=C1\CCC/C(=C\c2ccccc2C(F)(F)F)C1=NOCC1CCCC1 [Example 13, 2,6-(E,E)-(2-(trifluoromethyl)benzylidene)cyclohexan-1-one cyclopentylmethyl oxime]",inhibitory effect on the release of IL-6,[2],significant inhibitory effect
"FC(F)(F)c1ccccc1/C=C1\CCC/C(=C\c2ccccc2C(F)(F)F)C1=NOCCCN1CCCC1 [Example 6, 2,6-(E,E)-(2-(trifluoromethyl)benzylidene)cyclohexan-1-one-3-(pyrrolidin-1-yl)propyl oxime]",inhibitory effect on the release of IL-6,[2],significant inhibitory effect
"CCCON=C1/C(=C/c2ccccc2)CCC/C1=C\c1ccccc1 [Example 32, 2,6-(E,E)-(benzylidene)cyclohexan-1-one propyl oxime]",inhibitory effect on the release of IL-6,[2],significant inhibitory effect
same,inhibitory effect on the release of TNF-α,[1],significant inhibitory effect
